Data on eight compounds can be found in ChEMBL document CHEMBL3616377, “2-(3'-Indolyl)-N-arylthiazole-4-carboxamides: Synthesis and evaluation of antibacterial and anticancer activities” (Bioorg Med Chem Lett, 2015).

≈ marks a conversion by molar mass, not a printed value. Calls of active or inactive are those of the source. The rule behind the calls is not given here. Some results are limits rather than exact numbers.

The test system of series [1] is Staphylococcus aureus. In words: Antibacterial activity against methicillin-resistant Staphylococcus aureus. The format is functional.
Series [2] has as its system Staphylococcus aureus. In words: Antibacterial activity against Staphylococcus aureus MTCC 96 after 18 to 24 hrs by broth microdilution method. The format is functional.
Series [3] has as its system Staphylococcus aureus. Briefly: Antibacterial activity against Staphylococcus aureus MTCC 96 after 18 to 24 hrs by agar well diffusion method. The format is functional. Background: In agar diffusion tests the substance spreads into inoculated agar from a disc or well.
Series [4] has as its system Bacillus subtilis. In words: Antibacterial activity against Bacillus subtilis MTCC 121 after 18 to 24 hrs by agar well diffusion method. The format is functional.
Series [5] relates to Bacillus subtilis. Briefly: Antibacterial activity against Bacillus subtilis MTCC 121 after 18 to 24 hrs by broth microdilution method. The format is functional. On the technique in general: In broth dilution the organism is exposed to a series of concentrations in liquid medium.
The subject of series [6] is Escherichia coli. Briefly: Antibacterial activity against Escherichia coli MTCC 1652 after 18 to 24 hrs by agar well diffusion method. The format is functional.
Series [7] deals with Escherichia coli. Briefly: Antibacterial activity against Escherichia coli MTCC 1652 after 18 to 24 hrs by broth microdilution method. The format is functional.
Series [8] relates to Pseudomonas putida. Briefly: Antibacterial activity against Pseudomonas putida MTCC 102 after 18 to 24 hrs by agar well diffusion method. The format is functional.
Series [9] relates to Pseudomonas putida. Briefly: Antibacterial activity against Pseudomonas putida MTCC 102 after 18 to 24 hrs by broth microdilution method. The format is functional.
Series [10] deals with Escherichia coli. In words: Bactericidal activity against Escherichia coli MTCC 1652 assessed as reduction of number of bacterial cells at 4 times MIC after 1 to 6 hrs. The format is functional, organism-based.
Series [11] deals with Pseudomonas putida. Briefly: Bactericidal activity against Pseudomonas putida MTCC 102 assessed as reduction of number of bacterial cells at 4 times MIC after 1 to 6 hrs. The format is functional, organism-based.
Series [12] relates to Escherichia coli. In words: Bactericidal activity against Escherichia coli MTCC 1652 assessed as reduction of number of bacterial cells at 4 times MIC after 2 to 3 hrs. The format is functional, organism-based.
In series [13] the test system is Pseudomonas putida. In words: Bactericidal activity against Pseudomonas putida MTCC 102 assessed as reduction of number of bacterial cells at 4 times MIC after 2 to 3 hrs. The format is functional, organism-based.
A short description of series [14]: Solubility of the compound in 0.05 to 0.1% DMSO. The format is physicochemical.
The next series has as its system SK-N-MC. In words: Cytotoxicity against human SK-N-MC cells by MTT assay. The format is functional, cell-based.
For a further series, the system named is HepG2. In words: Cytotoxicity against human HepG2 cells by MTT assay. The format is functional, cell-based. Background: Tetrazolium dyes change colour on reduction, which living cells bring about.
The next series relates to MCF7. In words: Cytotoxicity against human MCF7 cells by MTT assay. The format is functional, cell-based.
The test system of series [15] is HeLa. Briefly: Cytotoxicity against human HeLa cells after 48 hrs by MTT assay in absence of 10% FBS. The format is functional, cell-based.
Series [16] concerns PC-3. In words: Cytotoxicity against human PC3 cells after 48 hrs by MTT assay in absence of 10% FBS. The format is functional, cell-based. The conditions noted are these: PC-3, 48 h.
The test system of series [17] is MDA-MB-231. Briefly: Cytotoxicity against human MDA-MB-231 cells after 48 hrs by MTT assay in absence of 10% FBS. The format is functional, cell-based. As to conditions: MDA-MB-231, 48 h.
Series [18] has as its system LNCaP. Briefly: Cytotoxicity against human LNCAP cells after 48 hrs by MTT assay in absence of 10% FBS. The format is functional, cell-based.
Series [19] concerns HEK-293T. Briefly: Cytotoxicity against human HEK293T cells after 48 hrs by MTT assay in presence of 10% FBS. The format is cell-based.
Series [20] is described as follows: Cytotoxicity against human castration-resistant C4-2 cells after 48 hrs by MTT assay in presence of 10% FBS. The format is functional, cell-based. As to conditions: LNCaP C4-2, 48 h.
Series [21] deals with HeLa. Briefly: Cytotoxicity against human HeLa cells after 48 hrs by MTT assay in presence of 10% FBS. The format is functional, cell-based.
In series [22] the test system is PC-3. In words: Cytotoxicity against human PC3 cells after 48 hrs by MTT assay in presence of 10% FBS. The format is functional, cell-based. The conditions noted are these: PC-3, 48 h.
Series [23] deals with MDA-MB-231. Briefly: Cytotoxicity against human MDA-MB-231 cells after 48 hrs by MTT assay in presence of 10% FBS. The format is functional, cell-based. As to conditions: MDA-MB-231, 48 h.
The test system of series [24] is LNCaP. Briefly: Cytotoxicity against human LNCAP cells after 48 hrs by MTT assay in presence of 10% FBS. The format is functional, cell-based.
The test system of series [25] is HeLa. Briefly: Induction of apoptosis in human HeLa cells assessed as formation of apoptotic nuclei formation at 10 uM after 24 hrs using propidium iodide staining by fluorescence microscopy analysis. The format is functional, cell-based.
In series [26] the test system is HEK-293T. Briefly: Cytotoxicity against human HEK293T cells after 48 hrs by MTT assay in absence of 10% FBS. The format is cell-based.
Series [27] is described as follows: Cytotoxicity against human castration-resistant C4-2 cells after 48 hrs by MTT assay in absence of 10% FBS. The format is functional, cell-based. The conditions noted are these: LNCaP C4-2, 48 h.

The term MIC denotes the lowest concentration found to suppress growth. A higher MIC goes with a need for much substance. With `Clc1ccc2ccc(-c3c[nH]c4ccc(Br)cc34)nc2c1`, the MIC in the series on Staphylococcus aureus [1] is less than 1 µg/mL.

`COc1ccc(NC(=O)c2csc(-c3c[nH]c4ccc(Br)cc34)n2)cc1`: the minimal inhibitory concentration (MIC) amounted to 50 µg/mL (≈ 117 µM) against Staphylococcus aureus [2], 50 µg/mL (≈ 117 µM) with Bacillus subtilis [5], 12.5 µg/mL (≈ 29.2 µM) with Escherichia coli [7] and 12.5 µg/mL (≈ 29.2 µM) in the series on Pseudomonas putida [9]. Besides, the “inhibition zone (IZ)” value in the series with Staphylococcus aureus [3] is 14 mm; with Bacillus subtilis [4], 15 mm; in the series on Escherichia coli [6] it was 15 mm; in the series on Pseudomonas putida [8] it was 16 mm. In addition, the outcome in the series with Escherichia coli [10], in the series on Pseudomonas putida [11], with Escherichia coli [12] and in the series with Pseudomonas putida [13] was Active. In series [14], the solubility entry is reported as “Insoluble”.

For `O=C(Nc1ccc(F)cc1)c1csc(-c2c[nH]c3ccccc23)n1`, the minimum inhibitory concentration (MIC) against Staphylococcus aureus [2], in the series on Bacillus subtilis [5], against Escherichia coli [7] and against Pseudomonas putida [9] was 100 µg/mL (≈ 296 µM) in each case. The “inhibition zone (IZ)” value is 12 mm with Staphylococcus aureus [3], 10 mm in the series on Bacillus subtilis [4], 13 mm in the series on Escherichia coli [6] and 12 mm in the series with Pseudomonas putida [8]. In addition, the solubility entry in series [14] is “Insoluble”.

As for `COc1ccc(NC(=O)c2csc(-c3c[nH]c4ccccc34)n2)cc1OC`, the MIC in the series on Staphylococcus aureus [2] amounted to 50 µg/mL (≈ 132 µM); in the series on Bacillus subtilis [5] it was 50 µg/mL (≈ 132 µM); in the series with Escherichia coli [7], 25 µg/mL (≈ 65.9 µM); with Pseudomonas putida [9], 25 µg/mL (≈ 65.9 µM). Moreover, the “inhibition zone (IZ)” value was determined as 14 mm in the series on Staphylococcus aureus [3], 14 mm with Bacillus subtilis [4], 16 mm with Escherichia coli [6] and 16 mm with Pseudomonas putida [8]. For the same compound, the solubility result in series [14] is on record as “Insoluble”.

The IC50 is the point on the concentration scale where inhibition reaches its midpoint. Regarding `Cc1ccc(-c2nc(C(=O)Nc3ccccc3)cs2)cc1`, the concentration for half-maximal inhibition (IC50) with SK-N-MC, with HepG2 and with MCF7 was 10 µM each time.

With `COc1ccc2[nH]cc(-c3nc(C(=O)Nc4cc(OC)c(OC)c(OC)c4)cs3)c2c1`, the IC50 with HeLa [15] is 29.6 µM; with PC-3 [16], 94.3 µM; in the series on MDA-MB-231 [17], greater than 100 µM; in the series with LNCaP [18] it was greater than 100 µM; in the series with HEK-293T [19] it was 8.74 µM; in series [20], greater than 100 µM. The IC50 in the series on HeLa [21] was 9.98 µM; in the series with PC-3 [22] it was greater than 100 µM; in the series on MDA-MB-231 [23], greater than 100 µM; with LNCaP [24] it was 84.8 µM; with HEK-293T [26] it was 8.6 µM; in series [27] it was greater than 100 µM. For the same compound, the minimal inhibitory concentration (MIC) with Staphylococcus aureus [2] was found to be 100 µg/mL (≈ 228 µM); against Bacillus subtilis [5], 50 µg/mL (≈ 114 µM); against Escherichia coli [7] it was 12.5 µg/mL (≈ 28.4 µM); against Pseudomonas putida [9], 12.5 µg/mL (≈ 28.4 µM). Besides, the “inhibition zone (IZ)” value turned out to be 13 mm in the series with Staphylococcus aureus [3], 14 mm in the series with Bacillus subtilis [4], 18 mm with Escherichia coli [6] and 18 mm in the series with Pseudomonas putida [8]. Moreover, the result in the series with Escherichia coli [10], in the series on Pseudomonas putida [11], in the series with Escherichia coli [12], in the series with Pseudomonas putida [13] and in the series on HeLa [25] was Active.

In the case of `COc1cc(NC(=O)c2csc(-c3c[nH]c4ccccc34)n2)cc(OC)c1OC`, the minimal inhibitory concentration (MIC) in the series with Staphylococcus aureus [2] came out at 100 µg/mL (≈ 244 µM); against Bacillus subtilis [5], 50 µg/mL (≈ 122 µM); against Escherichia coli [7] it was 50 µg/mL (≈ 122 µM); in the series on Pseudomonas putida [9] it was 100 µg/mL (≈ 244 µM). Further, the “inhibition zone (IZ)” value was 12 mm with Staphylococcus aureus [3], 14 mm in the series with Bacillus subtilis [4], 14 mm in the series on Escherichia coli [6] and 13 mm in the series on Pseudomonas putida [8]. For the same compound, the solubility result in [14] was “Insoluble”.

As for `COc1cccc2c1C(=O)c1c(O)c3c(c(O)c1C2=O)C[C@@](O)(C(=O)CO)C[C@@H]3O[C@H]1C[C@H](N)[C@H](O)[C@H](C)O1` [DOXORUBICIN], the IC50 stood at 7.65 µM with PC-3 [16]; 6.03 µM with MDA-MB-231 [17]; 6.46 µM in the series on LNCaP [18]; 0.75 µM with HEK-293T [19]; 0.57 µM in series [20]; 9.8 µM in the series on PC-3 [22]. For the same compound, the figures for the half-maximal inhibitory concentration (IC50) (in the series with LNCaP [24]; in the series on HEK-293T [26]; in [27]) were 7.4 µM, 0.84 µM and 1.02 µM, respectively. Also, the result in the series on HeLa [25] was Active.
